In patent US12606533B2, “3-phenylpropylamine derivative” (DAIICHI SANKYO COMPANY, LIMITED, priority 2023, dated 2026):
Where a name gives a salt, the structure may show the parent alone.

Key:
SF1-LBD = SF1-LBD (Homo sapiens, UniProt Q13285); test: Inhibitory activity against binding of DAX1 to SF1-LBD (AlphaLISA); conditions: inhibition of binding of DAX1 peptide to His-SF1-LBD, read-out: cell-free SF1 IC50
Experimental: The binding activity of each compound to the SF-1 ligand binding domain (LBD) was evaluated using the binding inhibitory activity of each compound against binding of DAX1 to SF1-LBD as an index. 100 nM His-SF1-LBD, 2 nM Biotin-DAX1 peptide (Biotin-[…]-NH2) and each compound (8-point i1 dilution series with common ratio 2 from final concentration 2 μM) were mixed in assay buffer [25 mM HEPES (pH 7.5), 100 mM NaCl, 0.1% BSA, 0.01% CHAPS, 1 mM DTT] and reacted at room temperature for 30 min. Anti-6×His AlphaLISA Acceptor beads and Streptavidin-coated AlphaScreen Donor beads were mixed to a final concentrations of 5 μg/ml and 10 μg/ml, respectively, and reacted in the dark at room temperature for 60 min. AlphaLISA signals were detected using a multimode plate reader (EnVision Xcite, PerkinElmer). The binding rate of DAX1 peptide to SF1 was calculated from the luminescence amount (C) of the compound-free group and the luminescence amount (T) of the compound-added group, based on the following formula.
The DAX1 peptide binding rate at each concentration was analyzed using GraphPad Prism6 (GraphPad Software Inc.) to calculate the concentration (IC50 value) of each compound that inhibits 50% of the binding of DAX1 to SF1-LBD.

CYP11A1 = test: Changes in SF1 target gene expression for NCI-H295R: CYP11A1 mRNA (qPCR); format: cell-based; conditions: Homo sapiens, NCI-H295R cells, 24 hr
Experimental: (§1) NCI-H295R cells were cultured in a 5% CO2 incubator at 37° C. using DMEM/F12 medium (Thermo Fisher Scientific Inc.) containing 2.5% Nu-Serum (registered trademark) Growth Medium Supplement (Corning) and 1% Corning ITS+ Premix Universal Culture Supplement (Corning). The DMSO solution of each compound was serially diluted with DMSO using a D300e Digital Dispenser (TECAN), and the compounds were added to a 96-well plate (FALCON). NCI-H295R cells were seeded at 1×10^4 cells/50 μL/well on the 96-well plate containing the compounds added thereto, and cultured for 24 hr in a 5% CO2 incubator at 37° C. The final DMSO concentration in the medium was adjusted to 0.1% (v/v) in all cases, and the concentration range of the compounds was set to 1000 nM to 0.32 nM with a common ratio […]. After the completion of culture, the medium was discarded, 50 μL/well of chilled D-PBS (Sigma Aldrich) was added to wash the cells, and D-PBS was discarded. After washing, 25 μL/well of Cells-to-CT (registered trademark) Bulk Lysis Reagents (Thermo Fisher Scientific, Inc.) was added to the wells, the mixture was stirred for 5 min with a plate mixer, and 2.5 μL/well of the reaction quenching liquid was added to prepare cell lysate. The cell lysate was dispensed into a 96-well plate (Corning) at 10 μL/well, and 40 μL/well of Cells-to-CT Bulk RT Reagents (Thermo Fisher Scientific, Inc.) was added. A reverse transcription reaction was performed at 37° C. for 50 min using a thermal cycler, and the reverse transcriptase was inactivated by heating at 95° C. for 5 min, and then stored at 10° C. PrimeTime (registered trademark) Gene Expression Master Mix (Integrated DNA Technologies), the target genes CYP11A1, CYP17A1, CYP21A2, or STAR, and the control gene ACTB PrimeTime (registered trademark) qPCR Probe Assays (Integrated DNA Technologies), and Nuclease free water were mixed at a ratio of 20:1:1:10 to prepare a PrimerProbe mix. The prepared PrimerProbe mix was added to a 384-well plate at 8 μL/well, and the cDNA obtained by reverse transcription was added at 2 μL/well. Real-Time PCR was performed under fast cycling conditions (95° C. for 3 min, followed by 40 cycles of 95° C. for 5 seconds and 62° C. for 30 seconds) to measure the fluorescent signal. The obtained data was analyzed using GraphPad Prism9 (GraphPad Software Inc.) to calculate the concentration (IC50 value) that reduces the mRNA expression level by 50%. The IC50 values (unit: nM) for CYP11A1, CYP17A1, CYP21A2, and STAR, of the compounds corresponding to each Example number are shown in Table 94.

CYP17A1 = test: Changes in SF1 target gene expression for NCI-H295R: CYP17A1 mRNA (qPCR); format: cell-based; conditions: Homo sapiens, NCI-H295R cells, 24 hr
Experimental: as §1

CYP21A2 = test: Changes in SF1 target gene expression for NCI-H295R: CYP21A2 mRNA (qPCR); format: cell-based; conditions: Homo sapiens, NCI-H295R cells, 24 hr
Experimental: as §1

STAR = test: Changes in SF1 target gene expression for NCI-H295R: STAR mRNA (qPCR); format: cell-based; conditions: Homo sapiens, NCI-H295R cells, 24 hr
Experimental: as §1

SF1-LBD, sequence (Q13285 222-459 limits assumed): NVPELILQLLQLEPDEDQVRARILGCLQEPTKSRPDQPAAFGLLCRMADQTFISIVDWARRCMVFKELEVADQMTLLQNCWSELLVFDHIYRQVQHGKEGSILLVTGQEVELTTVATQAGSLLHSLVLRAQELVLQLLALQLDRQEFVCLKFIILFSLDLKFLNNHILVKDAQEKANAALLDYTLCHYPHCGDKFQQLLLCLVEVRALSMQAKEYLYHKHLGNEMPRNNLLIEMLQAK

Structure (SMILES)	IC50 (SF1-LBD) [nM]	IC50 (CYP11A1) [nM]	IC50 (CYP17A1) [nM]	IC50 (CYP21A2) [nM]	IC50 (STAR) [nM]
COc1ccc([C@]2(CCN(Cc3ccc(O[C@H]4CC[C@H](CS(C)(=N)=O)CC4)cc3)C(=O)C(C)(C)C(F)F)CCOC(C)(C)C2)cc1 (single isomer, unassigned) [Example U11, 3,3-Difluoro-N-{2-[(4R)-4-(4-methoxyphenyl)-2,2-dimethyltetrahydro-2H-pyran-4-yl]ethyl}-2,2-dimethyl-N-{4-[(trans-4-{[(R) or (S)—S-methylsulfonimidoyl]methyl}cyclohexyl)oxy]benzyl}propanamide]	21	10	140	24	54
CC1(C)CC(CCN(Cc2ccc(O[C@H]3CC[C@H](C(=O)O)CC3)cc2)C(=O)C(C)(C)C)(c2ccc(Cl)cc2)CCO1 (stereo partly drawn) [Example A6, Trans-4-(4-{[{2-[4-(4-chlorophenyl)-2,2-dimethyltetrahydro-2H-pyran-4-yl]ethyl)(2,2-dimethylpropanoyl)amino]methyl}phenoxy)cyclohexanecarboxylic acid]	19	102	283	142	159
CC1(C)CC(CCN(Cc2ccc(O[C@H]3CC[C@H](C(=O)O)CC3)cc2)C(=O)C(C)(C)C)(c2ccc(OC(F)(F)F)cc2)CCO1 (stereo partly drawn) [Example B5, Trans-4-(4-{[(2,2-dimethylpropanoyl) (2-{2,2-dimethyl-4-[4-(trifluoromethoxy)phenyl]tetrahydro-2H-pyran-4-yl}ethyl)amino]methyl}phenoxy)cyclohexanecarboxylic acid]	20	10	56	17	24
COc1ccc(C2(CCN(Cc3ccc(O[C@H]4CC[C@H](CC(=O)O)CC4)c(Cl)c3)C(=O)C(C)(C)C)CCOC(C)(C)C2)cc1 (stereo partly drawn) [Example C8, [Trans-4-(2-chloro-4-{[(2,2-dimethylpropanoyl) {2-[4-(4-methoxyphenyl)-2,2-dimethyltetrahydro-2H-pyran-4-yl]ethyl}amino]methyl}phenoxy)cyclohexyl]acetic acid]	< 16	7.8	70	13	26
COc1ccc(C2(CCN(Cc3ccc(O[C@H]4CC[C@H](C(=O)O)CC4)cc3)C(=O)C(C)(C)C)CCOC(C)(C)C2)cc1 (stereo partly drawn) [Example D3, Trans-4-(4-{[(2,2-dimethylpropanoyl){2-[4-(4-methoxyphenyl)-2,2-dimethyltetrahydro-2H-pyran-4-yl]ethyl}amino]methyl}phenoxy)cyclohexanecarboxylic acid]	29	53	144	78	76
COc1ccc([C@]2(CCN(Cc3ccc(O[C@H]4CC[C@H](C(=O)O)CC4)cc3)C(=O)C(C)(C)C)CCOC(C)(C)C2)cc1 [Example E2, Trans-4-(4-{[(2,2-dimethylpropanoyl) {2-[(4R)-4-(4-methoxyphenyl)-2,2-dimethyltetrahydro-2H-pyran-4-yl]ethyl)amino]methyl}phenoxy)cyclohexanecarboxylic acid]	19	17	189	33	65
CC(C)Oc1ccc(C2(CCN(Cc3ccc(O[C@H]4CC[C@H](C(=O)O)CC4)cc3)C(=O)C(C)(C)C)CCOC(C)(C)C2)cc1 (stereo partly drawn) [Example F4, Trans-4-(4-{[(2,2-dimethylpropanoyl) (2-{2,2-dimethyl-4-[4-(propan-2-yloxy)phenyl]tetrahydro-2H-pyran-4-yl}ethyl)amino]methyl}phenoxy)cyclohexanecarboxylic acid]	31	14	166	23	69
CC1(C)CC(CCN(Cc2ccc(O[C@H]3CC[C@H](C(=O)O)CC3)cc2)C(=O)C(C)(C)C)(c2ccc(N3CCCC3)cc2)CCO1 (stereo partly drawn) [Example G3, Trans-4-(4-{[(2,2-dimethylpropanoyl) (2-{2,2-dimethyl-4-[4-(pyrrolidin-1-yl)phenyl]tetrahydro-2H-pyran-4-yl}ethyl)amino]methyl}phenoxy)cyclohexanecarboxylic acid]	54	32	73	42	35
COc1ccc(C2(CCN(Cc3ccc(O[C@H]4CC[C@H](C(=O)NS(=O)(=O)N(C)C)CC4)cc3)C(=O)C(C)(C)C)CCOC(C)(C)C2)cc1 (stereo partly drawn) [Example H1, Trans-4-(4-{[(2,2-dimethylpropanoyl) {2-[4-(4-methoxyphenyl)-2,2-dimethyltetrahydro-2H-pyran-4-yl]ethyl}amino]methyl}phenoxy)-N-(dimethylsulfamoyl)cyclohexanecarboxamide]	32	25	80	39	37
COc1ccc(C2(CCN(Cc3ccc(O[C@H]4CC[C@H](C(=O)O)CC4)cc3)c3ccccn3)CCOC(C)(C)C2)cc1 (stereo partly drawn) [Example I2, trans-4-(4-{[{2-[4-(4-Methoxyphenyl)-2,2-dimethyltetrahydro-2H-pyran-4-yl]ethyl}(pyridin-2-yl)amino]methyl}phenoxy)cyclohexanecarboxylic acid]	47	29	117	52	55
COc1ccc([C@]2(CCN(Cc3ccc(C4=CC[C@H](C(=O)O)CC4)c(F)c3)CC(C)(C)C(F)(F)F)CCOC(C)(C)C2)cc1 [Example V5, (4R)-2′-Fluoro-4′-{[{2-[(4R)-4-(4-methoxyphenyl)-2,2-dimethyltetrahydro-2H-pyran-4-yl]ethyl)(3,3,3-trifluoro-2,2-dimethylpropyl)amino]methyl}-2,3,4,5-tetrahydro[biphenyl]-4-carboxylic acid monohydrochloride]	–	9.8	71	21	18
COc1ccc([C@]2(CCN(Cc3ccc(C4=CC[C@H](CO)CC4)cc3)CC(C)(C)C(F)(F)F)CCOC(C)(C)C2)cc1 [Example W5, [(4R)-4′-{[{2-[(4R)-4-(4-Methoxyphenyl)-2,2-dimethyltetrahydro-2H-pyran-4-yl]ethyl)(3,3,3-trifluoro-2,2-dimethylpropyl)amino]methyl}-2,3,4,5-tetrahydro[biphenyl]-4-yl]methanol]	–	90	372	138	131
COc1ccc([C@]2(CCN(Cc3ccc(C4=CC[C@H](CN5CCN(C(=O)OC(C)(C)C)CC5)CC4)cc3)CC(C)(C)C(F)(F)F)CCOC(C)(C)C2)cc1 [Example X2, tert-Butyl 4-{[(4R)-4′-{[{2-[(4R)-4-(4-methoxyphenyl)-2,2-dimethyltetrahydro-2H-pyran-4-yl]ethyl)(3,3,3-trifluoro-2,2-dimethylpropyl)amino]methyl}-2,3,4,5-tetrahydro[biphenyl]-4-yl]methyl}piperazine-1-carboxylate]	–	511	1230	581	776
